Source: patent publication US20150125407A1, “Vesicular Formulations, Uses and Methods” (Sequessome Technology Holdings Ltd, priority 2012, published 2015)

Test system: acne vulgaris
Experiment: Use example 1: topical roaccutane alone or layered with Rossoseq gel in teenage acne vulgaris
Details: topically applied roaccutane alone; person

With `CC1=C(/C=C/C(C)=C/C=C/C(C)=C\C(=O)O)C(C)(C)CCC1` [roaccutane] the “effect on acne vulgaris” value was “did not have a significant effect”.
